The target of series [1] is T1, human CRHR2 (Homo sapiens, UniProt Q13324).
T1 construct: expressed in transfected cells
T1 sequence (Q13324 1-438 isoform Q13324-2): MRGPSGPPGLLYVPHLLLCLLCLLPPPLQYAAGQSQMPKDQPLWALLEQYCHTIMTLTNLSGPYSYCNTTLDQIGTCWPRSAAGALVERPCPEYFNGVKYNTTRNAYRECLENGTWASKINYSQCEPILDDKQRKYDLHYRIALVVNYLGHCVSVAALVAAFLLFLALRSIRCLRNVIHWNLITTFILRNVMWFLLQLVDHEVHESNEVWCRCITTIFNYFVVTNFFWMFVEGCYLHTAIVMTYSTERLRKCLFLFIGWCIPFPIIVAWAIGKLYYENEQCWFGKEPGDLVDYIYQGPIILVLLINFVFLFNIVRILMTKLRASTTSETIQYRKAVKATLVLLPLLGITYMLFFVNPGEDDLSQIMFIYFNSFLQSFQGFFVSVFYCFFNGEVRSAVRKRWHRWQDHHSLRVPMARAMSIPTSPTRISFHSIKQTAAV
Description: Human CRHR2 cAMP assay (HTRF) in HEK293 cells stably expressing human CRHR2. It counts as cell-based. The following applies: HEK293 cells overexpressing human CRHR2; relative EC50, maximum 10 nM human UCN2; mean ± SE; read-out: hCRHR2 cAMP EC50 (pM, ± SE). An outline of the steps:
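HTRF cAMP read-out (665/620 nm ratio, 60 min lysis/detection at RT), converted to pmol/well via per-experiment standard curve. Stable HEK293 lines; buffer MEM, 0.1% casein, 5 mM HEPES pH 7.4, 0.25 mM IBMX. CRHR1: 25,000 cells, 1 h, 37° C. CRHR2: 5,000 cells, 30 min, RT.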
(In general: cAMP levels reflect the balance of adenylyl cyclase and phosphodiesterase activity.)

The nature of series [2]: Pharmacokinetics in Cynomolgus monkeys, single subcutaneous or intravenous dose. It counts as in vivo. The method, then:
Plasma concentrations of compounds were determined by LC/MS methods. For each assay, the compound and an internal standard (IS), were extracted from 100% mouse, rat, pig, or monkey plasma (70 μL) using Isopropanol-Methanol. Two distinct layers were formed upon centrifugation with the compound and the IS located in the supernatant layer. An aliquot of the supernatant (150 μL) was transferred to a Waters Sirocco Protein Precipitation Plate. The supernatant was eluted using a positive pressure manifold. The supernatant was mixed with 100-2 Water-Formic acid (400 μL) in a pretreated Sep-Pak tC18 SPE plate and eluted to waste. The peptide and IS were eluted with Acetonitrile-Formic acid (100 μL) in 2 steps (50 μL each step). The elution (40 μL) from SPE plate was mixed with diluent solution (1.875 μL 5× invitrosol and 3.125 μL 1% formic acid in water, 80 μL). A final sample (10 μl) was loaded onto a Xselect CSH C18 IS column (3.5 μm 2.1×20 mm). The column effluent was directed into a Thermo Fisher Scientific Orbitrap (Exploris 240) mass spectrometer for detection and quantitation.
Male and female Cynomolgus monkeys were administered a single subcutaneous dose or intravenous dose (183 to 190 nmol/kg) of compound in 40 mM Tris-HCl 5% D-mannitol (pH 8) at a volume of 0.5 mL/kg. Blood was collected from each animal at 0.5, 3, 6, 24, 48, 72, 96, 168, 240, 336, 408, and 504 hours postdose for pharmacokinetic characterization.

The mark [3] stands for this setting: both sexes, cynomolgus monkey, plasma, iv, 187 nmol/kg, single intravenous dose 187 nmol/kg, Mean.
The mark [4] stands for this setting: both sexes, cynomolgus monkey, plasma, iv, 187 nmol/kg, single intravenous dose 187 nmol/kg, individual animal.
Setting [5] is: single intravenous dose 187 nmol/kg, individual animal.
Setting [6] is: single subcutaneous dose 187 nmol/kg, individual animal.
The mark [7] stands for this setting: both sexes, cynomolgus monkey, plasma, iv, 183 nmol/kg, single intravenous dose 183 nmol/kg, Mean.
[8] abbreviates: both sexes, cynomolgus monkey, plasma, iv, 183 nmol/kg, single intravenous dose 183 nmol/kg, individual animal.
Setting [9] is: single intravenous dose 183 nmol/kg, individual animal.
The mark [10] stands for this setting: single subcutaneous dose 183 nmol/kg, individual animal.
Where [11] appears, read: both sexes, cynomolgus monkey, plasma, iv, 190 nmol/kg, single intravenous dose 190 nmol/kg, Mean.
The mark [12] stands for this setting: both sexes, cynomolgus monkey, plasma, iv, 190 nmol/kg, single intravenous dose 190 nmol/kg, individual animal.
Setting [13] is: single intravenous dose 190 nmol/kg, individual animal.
Where [14] appears, read: single subcutaneous dose 190 nmol/kg, individual animal.

Where “and” joins values, the source holds several entries; their conditions need not be identical. Equal entries are not always repeated. Where two headings read alike, the source gives them in different places. *1 amine or outer side, *2 acyl side, *3 side chain or, on linkers, in order; H or OH if unused. Side-chain parts run from the residue outwards. [ ]: non-standard residue; d: D form. The star is where a group is joined. C20 diacid = O=C(O)CCCCCCCCCCCCCCCCCCC(=O)*; γGlu = O=C(O)[C@H](CCC(=O)[*:2])N[*:1]; εLys = N[C@@H](CCCCN[*:1])C(=O)[*:2]; pGlu = O=C1CC[C@@H](C(=O)O)N1; αMeL = CC(C)C[C@](C)(N)C(=O)O; AEEA = NCCOCCOCC(=O)O; Aib = CC(C)(N)C(=O)O

For orientation: EC50 means the midpoint of the concentration-response curve. The half-life is how long it takes for the measured level to halve. A lower half-life goes with fast loss. Usually Tmax stands for the time from dosing to the highest level. As usually defined, the Cmax is the highest concentration seen after dosing. As to “Ac-GSPSIVTS[αMeL]DVPT[Aib][αMeL]LQKILEQERAEKARQQAK([γGlu-AEEA-εLys-C20 diacid])EAAEILAQV-NH2 [SEQ ID NO: 1, Ac-GSPSIVTS αMeL DVPT Aib αMeL LQKILEQERAEKARQQAK(γE-(2-[2-(2-Amino-ethoxy)-ethoxy]-acetyl)-ϵK-CO-(CH2)18-CO2H)EAAEILAQV-NH2]”, the EC50 in series [1] turned out to be 9.3 ± 1.1 pM. The clearance is 14.7 mL/day/kg in series [2] (setting [3]) and 12.2 mL/day/kg in series [2] (setting [4]). The half-life in series [2] (setting [3]) was 91.6 h; in series [2] (setting [4]) it was 91.9 h; in series [2] (both sexes, cynomolgus monkey, plasma, sc, 187 nmol/kg, single subcutaneous dose 187 nmol/kg, Mean), 81.9 h; in series [2] (both sexes, cynomolgus monkey, plasma, sc, 187 nmol/kg, single subcutaneous dose 187 nmol/kg, individual animal) it was 72 h. Besides, the CL/F in series [2] (both sexes, cynomolgus monkey, plasma, sc, 187 nmol/kg, single subcutaneous dose 187 nmol/kg, Mean, read-out: CL/F (converted)) was 19.5 mL/day/kg; in series [2] (both sexes, cynomolgus monkey, plasma, sc, 187 nmol/kg, single subcutaneous dose 187 nmol/kg, individual animal, read-out: CL/F (converted)), 20.8 mL/day/kg; in series [2] (setting [6]), 18.1 mL/day/kg. Also, the Tmax in series [2] (both sexes, cynomolgus monkey, plasma, sc, 187 nmol/kg, single subcutaneous dose 187 nmol/kg, Mean, read-out: Tmax) came out at 48 h; in series [2] (both sexes, cynomolgus monkey, plasma, sc, 187 nmol/kg, single subcutaneous dose 187 nmol/kg, individual animal, read-out: Tmax) it was 48 h. In addition, the AUC0-inf in series [2] (both sexes, cynomolgus monkey, plasma, sc, single subcutaneous dose 187 nmol/kg, Mean, read-out: AUC0-inf) is 238 µM·h; in series [2] (both sexes, cynomolgus monkey, plasma, single intravenous dose 187 nmol/kg, Mean, read-out: AUC0-inf) it was 315 µM·h; in series [2] (setting [5]), 369 µM·h and 261 µM·h; in series [2] (setting [6]) it was 221 µM·h and 255 µM·h. For the same substance, the Cmax in series [2] (both sexes, cynomolgus monkey, plasma, sc, single subcutaneous dose 187 nmol/kg, Mean, read-out: Cmax) was 1180 nM; in series [2] (setting [6]), 1100 nM and 1260 nM. In addition, the C0 in series [2] (both sexes, cynomolgus monkey, plasma, single intravenous dose 187 nmol/kg, Mean, read-out: C0) was 4600 nM; in series [2] (setting [5]), 5040 nM and 4150 nM. The “CL” value in series [2] (setting [5]) amounted to 17.2 mL/day/kg. The “T1/2” value in series [2] (setting [5]) was determined as 91.3 h; in series [2] (setting [6]) it was 91.7 h.

Turning to “[pGlu]GSPSGIVTS[αMeL]DVPT[Aib][αMeL]LQKILEQERAEKARQQAK([γGlu-AEEA-εLys-C20 diacid])EAAEILAQV-NH2 [SEQ ID NO: 22, Pyr-GSPSGIVTS αMeL DVPT Aib αMeL LQKILEQERAEKARQQAK(γE-(2-[2-(2-Amino-ethoxy)-ethoxy]-acetyl)-ϵK-CO-(CH2)18-CO2H)EAAEILAQV-NH2]”, the EC50 in series [1] came to 11.3 ± 3 pM. Moreover, the clearance in series [2] (setting [7]) is 9.89 mL/day/kg; in series [2] (setting [8]), 9.41 mL/day/kg. In addition, the half-life in series [2] (setting [7]) was 98.1 h; in series [2] (setting [8]), 83.1 h; in series [2] (both sexes, cynomolgus monkey, plasma, sc, 183 nmol/kg, single subcutaneous dose 183 nmol/kg, Mean), 136 h. Also, the CL/F in series [2] (both sexes, cynomolgus monkey, plasma, sc, 183 nmol/kg, single subcutaneous dose 183 nmol/kg, Mean, read-out: CL/F (converted)) was 12.9 mL/day/kg; in series [2] (both sexes, cynomolgus monkey, plasma, sc, 183 nmol/kg, single subcutaneous dose 183 nmol/kg, individual animal, read-out: CL/F (converted)), 12.5 mL/day/kg; in series [2] (setting [10]), 13.2 mL/day/kg. Besides, the Tmax in series [2] (both sexes, cynomolgus monkey, plasma, sc, 183 nmol/kg, single subcutaneous dose 183 nmol/kg, Mean, read-out: Tmax) came out at 60 h; in series [2] (both sexes, cynomolgus monkey, plasma, sc, 183 nmol/kg, single subcutaneous dose 183 nmol/kg, individual animal, read-out: Tmax), 72 h; in series [2] (setting [10]), 48 h. Moreover, the AUC0-inf in series [2] (both sexes, cynomolgus monkey, plasma, sc, single subcutaneous dose 183 nmol/kg, Mean, read-out: AUC0-inf) is 365 µM·h; in series [2] (both sexes, cynomolgus monkey, plasma, single intravenous dose 183 nmol/kg, Mean, read-out: AUC0-inf) it was 446 µM·h; in series [2] (setting [9]), 467 µM·h and 424 µM·h; in series [2] (setting [10]), 387 µM·h and 342 µM·h. For the same substance, the Cmax in series [2] (both sexes, cynomolgus monkey, plasma, sc, single subcutaneous dose 183 nmol/kg, Mean, read-out: Cmax) is 2000 nM; in series [2] (setting [10]), 1720 nM and 2280 nM. Besides, the C0 in series [2] (both sexes, cynomolgus monkey, plasma, single intravenous dose 183 nmol/kg, Mean, read-out: C0) is 4740 nM; in series [2] (setting [9]) it was 4160 nM and 5320 nM. Further, the “CL” value in series [2] (setting [9]) worked out at 10.3 mL/day/kg. The “T1/2” value in series [2] (setting [9]) is 113 h; in series [2] (setting [10]) it was 182 h and 90.2 h.

In the case of “{C20 diacid-εLys-AEEA-γGlu}-GSPSIVTS[αMeL]DVPT[Aib][αMeL]LQKILEQERAEKARQQATEAAEILAQV-NH2 [SEQ ID NO: 25]”, the EC50 in series [1] is 6.9 ± 0.5 pM. In addition, the clearance in series [2] (setting [11]) is 11.5 mL/day/kg; in series [2] (setting [12]), 12.8 mL/day/kg. Moreover, the half-life in series [2] (setting [11]) was 113 h; in series [2] (setting [12]) it was 100 h; in series [2] (both sexes, cynomolgus monkey, plasma, sc, 190 nmol/kg, single subcutaneous dose 190 nmol/kg, Mean) it was 199 h; in series [2] (both sexes, cynomolgus monkey, plasma, sc, 190 nmol/kg, single subcutaneous dose 190 nmol/kg, individual animal) it was 184 h. For the same substance, the CL/F in series [2] (both sexes, cynomolgus monkey, plasma, sc, 190 nmol/kg, single subcutaneous dose 190 nmol/kg, Mean, read-out: CL/F (converted)) is 12.3 mL/day/kg; in series [2] (both sexes, cynomolgus monkey, plasma, sc, 190 nmol/kg, single subcutaneous dose 190 nmol/kg, individual animal, read-out: CL/F (converted)), 14.4 mL/day/kg; in series [2] (setting [14]), 10.2 mL/day/kg. Moreover, the Tmax in series [2] (both sexes, cynomolgus monkey, plasma, sc, 190 nmol/kg, single subcutaneous dose 190 nmol/kg, Mean, read-out: Tmax) was found to be 24 h; in series [2] (both sexes, cynomolgus monkey, plasma, sc, 190 nmol/kg, single subcutaneous dose 190 nmol/kg, individual animal, read-out: Tmax), 24 h. The AUC0-inf was 458 µM·h in series [2] (both sexes, cynomolgus monkey, plasma, sc, single subcutaneous dose 190 nmol/kg, Mean, read-out: AUC0-inf); 402 µM·h in series [2] (both sexes, cynomolgus monkey, plasma, single intravenous dose 190 nmol/kg, Mean, read-out: AUC0-inf); 355 µM·h and 449 µM·h in series [2] (setting [13]); 364 µM·h and 551 µM·h in series [2] (setting [14]). The Cmax is 1610 nM in series [2] (both sexes, cynomolgus monkey, plasma, sc, single subcutaneous dose 190 nmol/kg, Mean, read-out: Cmax); 1540 nM and 1680 nM in series [2] (setting [14]). In addition, the C0 in series [2] (both sexes, cynomolgus monkey, plasma, single intravenous dose 190 nmol/kg, Mean, read-out: C0) was 3500 nM; in series [2] (setting [13]), 3040 nM and 3960 nM. The “CL” value in series [2] (setting [13]) came to 10.1 mL/day/kg. Further, the “T1/2” value came to 126 h in series [2] (setting [13]) and 214 h in series [2] (setting [14]).

The values above are taken from patent publication US20250163119A1, “COMPOUNDS FOR THE TREATMENT OF DIABETES OR OBESITY” (Eli Lilly and Company, priority 2023, published 2025).
